Measured values: PubChem BioAssay AID248 (DTP/NCI, 2004)
“And” between values parts separate entries of the source, which are not always exact repeats. Equal entries are not always repeated. Toxic doses and inconclusive results are not listed. Cut-off read from the data, not from the text of the source: active = T/C of 150% or more; inactive = T/C below 125%.

System: L1210 leukemia ip in BDF1 mice, survival T/C
Experiment: NCI In Vivo Anticancer Drug Screen. Data for tumor model L1210 Leukemia (intraperitoneal) in B6D2F1 (BDF1) mice
Details: endpoint: mean survival time, higher = longer survival
How it was run: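 Value reflects the ratio of survival in compound-treated mice to survival in vehicle-treated controls, with both groups carrying the same transplanted tumor.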

[1] = dose: 100.0 mg/kg/injection, schedule: Q04DX003 (ip), vehicle: Klucel (hydroxypropylcellulose) (HPC)
[2] = dose: 200.0 mg/kg/injection, schedule: Q04DX003 (ip), vehicle: Klucel (hydroxypropylcellulose) (HPC)
[3] = dose: 400.0 mg/kg/injection, schedule: Q04DX003 (ip), vehicle: Klucel (hydroxypropylcellulose) (HPC)
[4] = dose: 100.0 mg/kg/injection, schedule: Q01DX009 (ip), vehicle: saline with Tween-80
[5] = dose: 200.0 mg/kg/injection, schedule: Q01DX009 (ip), vehicle: saline with Tween-80
[6] = dose: 400.0 mg/kg/injection, schedule: Q01DX009 (ip), vehicle: saline with Tween-80
[7] = dose: 100.0 mg/kg/injection, schedule: Q01DX009 (ip), vehicle: Klucel (hydroxypropylcellulose) (HPC)
[8] = dose: 200.0 mg/kg/injection, schedule: Q01DX009 (ip), vehicle: Klucel (hydroxypropylcellulose) (HPC)
[9] = dose: 200.0 mg/kg/injection, schedule: Q01DX001 (ip), vehicle: saline
[10] = dose: 400.0 mg/kg/injection, schedule: Q01DX001 (ip), vehicle: saline
[11] = dose: 100.0 mg/kg/injection, schedule: Q04DX003 (ip), vehicle: saline
[12] = dose: 200.0 mg/kg/injection, schedule: Q04DX003 (ip), vehicle: saline
[13] = dose: 100.0 mg/kg/injection, schedule: Q04DX002 (ip), vehicle: Klucel (hydroxypropylcellulose) (HPC)
[14] = dose: 200.0 mg/kg/injection, schedule: Q04DX002 (ip), vehicle: Klucel (hydroxypropylcellulose) (HPC)
[15] = dose: 6.25 mg/kg/injection, schedule: Q04DX002 (ip), vehicle: saline
[16] = dose: 12.5 mg/kg/injection, schedule: Q04DX002 (ip), vehicle: saline
[17] = dose: 25.0 mg/kg/injection, schedule: Q04DX002 (ip), vehicle: saline
[18] = dose: 100.0 mg/kg/injection, schedule: Q01DX001 (ip), vehicle: saline

Measured: T/C

C1N2CN3CN1CN(C2)C3
inactive: dose: 50.0 mg/kg/injection, schedule: Q01DX001 (ip), vehicle: carboxymethylcellulose (CMC) 104 % of control | dose: 100.0 mg/kg/injection, schedule: Q01DX001 (ip), vehicle: carboxymethylcellulose (CMC) 104 % of control | dose: 100.0 mg/kg/injection, schedule: Q04DX002 (ip), vehicle: saline 100 % of control | dose: 200.0 mg/kg/injection, schedule: Q01DX001 (ip), vehicle: carboxymethylcellulose (CMC) 112 % of control | dose: 200.0 mg/kg/injection, schedule: Q04DX002 (ip), vehicle: saline 100 % of control | dose: 400.0 mg/kg/injection, schedule: Q01DX001 (ip), vehicle: carboxymethylcellulose (CMC) 101 % of control | dose: 400.0 mg/kg/injection, schedule: Q04DX002 (ip), vehicle: saline 114 % of control

CC(C)(C)c1cc(-c2cc(C(C)(C)C)c(O)c(C(C)(C)C)c2)cc(C(C)(C)C)c1O
inactive: [1] 104 % of control | [2] 107 % of control | [3] 98 % of control

Nc1nccnc1Cl
inactive: dose: 75.0 mg/kg/injection, schedule: Q01DX001 (ip), vehicle: acetone 104 % of control | dose: 150.0 mg/kg/injection, schedule: Q01DX001 (ip), vehicle: acetone 104 % of control | dose: 300.0 mg/kg/injection, schedule: Q01DX001 (ip), vehicle: acetone 96 % of control

Cc1nc2cc3ccccc3c3ccc4cccc1c4c23
inactive: [4] 93 % of control | [5] 93 % of control | [6] 87 % of control

S=c1[nH]c2ccccc2c2ccccc12
inactive: dose: 50.0 mg/kg/injection, schedule: Q01DX009 (ip), vehicle: Klucel (hydroxypropylcellulose) (HPC) 96 % of control | [7] 105 % of control | [1] 97 % of control | [8] 97 % of control | [2] 90 % of control | [3] 95 % of control

Cc1cccc(N=Nc2ccc(O)cc2)c1
inactive: [7] 100 % of control | [8] 97 % of control | dose: 400.0 mg/kg/injection, schedule: Q01DX009 (ip), vehicle: Klucel (hydroxypropylcellulose) (HPC) 101 % of control

CC(C)c1ccc(C(=O)CCCCl)cc1
inactive: dose: 100.0 mg/kg/injection, schedule: Q04DX003 (ip), vehicle: saline with Tween-80 97 % of control | dose: 200.0 mg/kg/injection, schedule: Q04DX003 (ip), vehicle: saline with Tween-80 102 % of control | dose: 400.0 mg/kg/injection, schedule: Q04DX003 (ip), vehicle: saline with Tween-80 92 % of control

Cc1cc(C)c(C)c(OCC(=O)O)c1
inactive: dose: 75.0 mg/kg/injection, schedule: Q01DX001 (ip), vehicle: other 97 % of control | dose: 150.0 mg/kg/injection, schedule: Q01DX001 (ip), vehicle: other 97 % of control | dose: 300.0 mg/kg/injection, schedule: Q01DX001 (ip), vehicle: other 95 % of control

NC(N)=NS(=O)(=O)c1ccc(N)cc1
inactive: [4] 98 % of control | [5] 95 % of control | [6] 91 % of control

Cc1cc(C)c2c(C#N)cn(-c3ccc([N+](=O)[O-])cc3)c2n1
inactive: dose: 100.0 mg/kg/injection, schedule: Q01DX001 (ip), vehicle: saline with Tween-80 98 % of control | dose: 200.0 mg/kg/injection, schedule: Q01DX001 (ip), vehicle: saline with Tween-80 109 % of control | [9] 102 % of control | dose: 400.0 mg/kg/injection, schedule: Q01DX001 (ip), vehicle: saline with Tween-80 95 % of control | [10] 94 % of control

CC1CC(C)(C)N=C(C(C)CC(C)(C)C)O1 (stereo not drawn)
inactive: [11] 105 % of control | [12] 94 % of control

CC(C)=CCn1cnc2c1c(=O)n(C)c(=O)n2C
inactive: dose: 50.0 mg/kg/injection, schedule: Q04DX002 (ip), vehicle: Klucel (hydroxypropylcellulose) (HPC) 100 % of control | [13] 88 % of control | [14] 96 % of control

CCOC(=O)Nc1ccc(NC(=O)OCC)cc1
inactive: [7] 89 % of control | [1] 96 % of control | [8] 89 % of control | [2] 93 % of control | [3] 111 % of control

ClCc1ccc(CCl)cc1
inactive: dose: 56.25 mg/kg/injection, schedule: Q01DX009 (ip), vehicle: Klucel (hydroxypropylcellulose) (HPC) 101 % of control | dose: 112.5 mg/kg/injection, schedule: Q01DX009 (ip), vehicle: Klucel (hydroxypropylcellulose) (HPC) 98 % of control | dose: 150.0 mg/kg/injection, schedule: Q04DX003 (ip), vehicle: Klucel (hydroxypropylcellulose) (HPC) 105 % of control | dose: 225.0 mg/kg/injection, schedule: Q01DX009 (ip), vehicle: Klucel (hydroxypropylcellulose) (HPC) 87 % of control | dose: 225.0 mg/kg/injection, schedule: Q04DX003 (ip), vehicle: Klucel (hydroxypropylcellulose) (HPC) 97 % of control

OC(COc1ccccc1)CN1CCN(c2ccccc2)CC1 (stereo not drawn)
inactive: [13] 98 % of control | [14] 102 % of control | dose: 400.0 mg/kg/injection, schedule: Q04DX002 (ip), vehicle: Klucel (hydroxypropylcellulose) (HPC) 95 % of control and 102 % of control

CCC(C(=O)C(C)C(O)C(C)CCc1ccc(C)c(O)c1C(=O)O)C1OC(CC)(C2CCC(O)(CC)C(C)O2)CC1C (stereo not drawn)
inactive: [15] 100 % of control | [16] 92 % of control | [17] 92 % of control | dose: 50.0 mg/kg/injection, schedule: Q04DX002 (ip), vehicle: saline 103 % of control

O=S(=O)(Nc1ccccn1)c1ccc(N=Nc2ccc(O)c3ncccc23)cc1
inactive: [18] 103 % of control | [9] 105 % of control | [10] 103 % of control

CC(=O)N(C)c1cc([N+](=O)[O-])ccc1OCc1ccccc1
inactive: dose: 50.0 mg/kg/injection, schedule: Q01DX001 (ip), vehicle: saline 102 % of control | [18] 96 % of control

N#C/C([SH2+])=C(/[SH2+])C#N.N#C/C([SH2+])=C(/[SH2+])C#N.N#C/C([SH2+])=C(/[SH2+])C#N.N#C/C([SH2+])=C(/[SH2+])C#N.[Co+3].[Co+3].c1ccc([P+](c2ccccc2)(c2ccccc2)c2ccccc2)cc1
inactive: dose: 50.0 mg/kg/injection, schedule: Q04DX003 (ip), vehicle: saline 105 % of control | [18] 105 % of control | [11] 97 % of control | [9] 109 % of control | [12] 108 % of control

O=c1c(N=Nc2ccc(Br)cc2)c(O)n(-c2ccccc2Cl)c(=S)n1-c1ccccc1
inactive: dose: 75.0 mg/kg/injection, schedule: Q01DX001 (ip), vehicle: Klucel (hydroxypropylcellulose) (HPC) 90 % of control | dose: 150.0 mg/kg/injection, schedule: Q01DX001 (ip), vehicle: Klucel (hydroxypropylcellulose) (HPC) 101 % of control

CCN(CC)CCNCc1cc(Cl)c2cccnc2c1O
inactive: [15] 90 % of control | [16] 97 % of control | [17] 94 % of control

O=C1NC(=O)C2CC(Br)C(Br)CC12 (stereo not drawn)
inactive: dose: 2.5 mg/kg/injection, schedule: Q01DX009 (ip), vehicle: Klucel (hydroxypropylcellulose) (HPC) 100 % of control | dose: 2.5 mg/kg/injection, schedule: Q04DX003 (ip), vehicle: Klucel (hydroxypropylcellulose) (HPC) 98 % of control | dose: 5.0 mg/kg/injection, schedule: Q01DX009 (ip), vehicle: Klucel (hydroxypropylcellulose) (HPC) 100 % of control | dose: 5.0 mg/kg/injection, schedule: Q04DX003 (ip), vehicle: Klucel (hydroxypropylcellulose) (HPC) 100 % of control | dose: 10.0 mg/kg/injection, schedule: Q01DX009 (ip), vehicle: Klucel (hydroxypropylcellulose) (HPC) 100 % of control | dose: 10.0 mg/kg/injection, schedule: Q04DX003 (ip), vehicle: Klucel (hydroxypropylcellulose) (HPC) 98 % of control and 100 % of control

CCC(C)C1NC(=O)C2C(CCN2C(=O)C(NC(=O)C(Cc2ccccc2)N(C)C)C(C)CC)Oc2ccc(cc2)/C=C\NC1=O (stereo not drawn)
inactive: [11] 94 % of control | [12] 97 % of control | dose: 400.0 mg/kg/injection, schedule: Q04DX003 (ip), vehicle: saline 92 % of control

C[PH+](c1ccccc1)c1ccccc1.C[PH+](c1ccccc1)c1ccccc1.[Cl][Pd][Cl]
inactive: dose: 75.0 mg/kg/injection, schedule: Q04DX003 (ip), vehicle: saline 112 % of control | dose: 150.0 mg/kg/injection, schedule: Q04DX003 (ip), vehicle: saline 107 % of control | dose: 300.0 mg/kg/injection, schedule: Q04DX003 (ip), vehicle: saline 104 % of control
